# Earlier results in the CATMoS acute toxicity set (Mansouri et al. 2021).
# Values joined by “and” are separate entries in the source; they are usually repeats but may differ in a detail not shown here. Equal entries are not always repeated. Where a SMILES comes first, the peptide text is derived from it. Bridges are numbered along the chain shown (N, C = ends). [ ]: non-standard residue; d: D form. The star is where a group is joined. X1 = CC[C@H](C)CCCCC(=O)*; Dab = NCC[C@H](N)C(=O)O
# Assay: rat acute oral toxicity
# Conditions: in vivo
# Excerpt: […]The data set underlying the modeling effort for this project was initially compiled by NICEATM and U.S. EPA’s CCTE. Briefly, LD50 data were collected from rat acute oral systemic toxicity tests, including limit tests, ranges/confidence intervals, and discrete LD50 values. The full data set included 21,200 LD50 entries for 15,688 substances. […] Data were reviewed to ensure that LD50 values with obvious errors in the extracted data such as unit conversion errors (e.g., comma and decimal separator misplacements) were either fixed or removed. After this review, 16,209 LD50 values remained. Many of the chemicals represented had multiple LD50 entries, requiring that a single representative value per Chemical Abstracts Service Registry Number (CASRN) identifier be defined to facilitate modeling efforts. Based on ATWG feedback and to define the representative LD50 as a protective value while accounting for the distribution across multiple LD50s, the median of the lowest quartile was computed using only discrete LD50 values (omitting limit test data and range and confidence interval data). A detailed summary of the data compilation is available online on the NICEATM webpage dedicated to the collaborative modeling project (NTP 2020).
# […][…] For categorical designations, limit test and range/confidence interval LD50 data were integrated wherever possible. As such, the number of chemicals with end point values/calls varies across the modeling end points (Table 3) based on whether chemicals had representative LD50 values and/or other data. If a chemical had both, the representative value was used to determine categorical calls rather than limit test data. Some data were useable only for certain end points and categories depending on the thresholds. For example, ranges that spanned multiple hazard categories were considered only for the binary (very toxic/nontoxic) end points and omitted from rendering a determination for hazard category assignment.
# […]The final data set comprising 11,992 chemicals was split into training and evaluation sets […], respectively. This process was performed semirandomly by ordering chemicals based on the five end points (categorical and continuous LD50 values) and partitioning every fourth record into the evaluation set accordingly. This approach was taken to ensure an equivalent distribution of the LD50 values and the different hazard categories between the training and the evaluation sets without supervised sampling of the chemicals based on structures (Figure 1A). The sources of the chemical structures were also kept equivalent between the two sets, with chemical structures obtained from DSSTox, being the highest quality, representing over 75% of each set (Figure 1B).
row,SMILES,LD50
1,CCN1C[C@H]2CN(C)C[C@@H](C1)C2OC(=O)c1ccc(Cl)cc1 (some centres undefined),383 mg/kg
2,CCOC(=O)CC(=O)OC(Br)C(Cl)(Cl)Cl (centres undefined),2600 mg/kg
3,CC1=NOC(=O)/C1=N\Nc1ccccc1Cl,126 mg/kg
4,CCCCc1c(OC(=O)c2ccccc2)n(-c2ccccc2)n(-c2ccccc2)c1=O,2200 mg/kg
5,Cc1cc(C(C)(C)C)cc(C)c1CC1=NCCN1,230 mg/kg
6,O[C@@H]([C@H](O)[C@H](O)CBr)[C@H](O)CBr,1500 mg/kg
7,CC(C)c1ccc(C(C)(C)O)cc1,11300 mg/kg
8,Cc1ccc(N(C)C)cc1,1650 mg/kg
9,O=C1CCc2cc(C(=O)CCN3CCN(c4cccc(Cl)c4)CC3)ccc2N1,500 mg/kg
10,COP(=S)(OC)SCSCC=C(Cl)Cl,85 mg/kg
11,CCCCCCCC(=O)NO,10700 mg/kg
12,CNC(=O)Oc1ccc(C)c(C)c1C,318 mg/kg
13,C#CCN(C)C1CCc2ccccc21 (centres undefined),250 mg/kg
14,COc1nc(C(F)(F)F)nc(=NC(O)=NS(=O)(=O)c2ccccc2C(F)(F)F)[nH]1,4700 mg/kg
15,CC1C(C)(C)C2=C(c3ncncc3CC2)C1(C)C (centres undefined),500 mg/kg
16,CCSCCSP(=S)(OC)OC,40 mg/kg
17,O=C(O)CCCC(=O)O,6000 mg/kg
18,CCC=CC=CC=O,1150 mg/kg
19,O=C(O)Cc1ccc(C2CCCCC2)c(Cl)c1,83 mg/kg
20,Cc1ccc(C(N)=O)cc1N,1730 mg/kg
21,CCCCCCCc1ccccc1O,2750 mg/kg
22,COc1cc([N+](=O)[O-])ccc1N,997 mg/kg
23,CCCCOC(=O)c1ccccc1C(=O)OCCOCCOC(=O)c1ccccc1C(=O)OCCCC,11000 mg/kg
24,CSCC[C@H](N)C(=O)O,36000 mg/kg
25,Cc1ccc(C)c([N+](=O)[O-])c1,2440 mg/kg

row,SMILES,LD50
1,Nc1cc(Cl)ccc1Cl,1600 mg/kg
2,CC[C@@]1(O)C(=O)OCc2c1cc1n(c2=O)Cc2cc3ccccc3nc2-1,153 mg/kg
3,Cc1ccc(C(=O)C(C)CN2CCCCC2)cc1 (centres undefined),1450 mg/kg
4,c1ccc(CC2CCNCC2)cc1,540 mg/kg
5,O=c1[nH]c2cc(Cl)c(Cl)cc2o1,700 mg/kg
6,COc1ccc2c(c1)OC(C)(C)C(c1ccccc1)=C2c1ccc(OCCO)cc1,500 mg/kg
7,O=S(=O)(O)CCS,4440 mg/kg
8,O=C(O)CSc1cc(Cl)ccc1Cl,1900 mg/kg
9,CCCCOC(C)COC(=O)COc1cc(Cl)c(Cl)cc1Cl (centres undefined),500 mg/kg
10,C#CCN1C(=O)CN=C(c2ccccc2)c2cc([N+](=O)[O-])ccc21,876 mg/kg
11,CCN(CC)S(=O)(=O)c1c(Cl)c(Cl)c(Cl)c2[nH]c(C(F)(F)F)nc12,11.2 mg/kg
12,CCCCNC(=S)Nc1ccccc1,150 mg/kg
13,CC(=O)CC(=O)Nc1ccccc1,2450 mg/kg
14,CNC(=O)Oc1cccc2c1OCCO2,126 mg/kg
15,c1ccc2c(c1)Oc1ccccc1O2,1220 mg/kg
16,Nc1ccc(N)cc1,80 mg/kg and 147 mg/kg
17,CCCOc1ccc(Cl)cc1C(CN(C)C)C(C)CC (centres undefined),561 mg/kg
18,COP(=O)(OC)ON1C(=O)c2cccc3cccc(c23)C1=O,70 mg/kg
19,CCCCN(CCO)CCCC,1070 mg/kg
20,CC(C)(C)c1cc(C2C(=O)c3ccccc3C2=O)cc(C(C)(C)C)c1,194 mg/kg
21,NNC(=O)CSc1cc(Oc2ccccc2)ncn1,220 mg/kg
22,CCCC(=O)NP(=O)(OC)SC (centres undefined),125 mg/kg
23,CNC(=O)Oc1c(C(C)C)ccc(C)c1Cl,250 mg/kg
24,O=CCC=O,632 mg/kg
25,O=c1c(F)cn(C2CCCO2)c(=O)n1C1CCCO1 (centres undefined),1730 mg/kg

row,SMILES,LD50
1,CCOP(=S)(OCC)SC(CC(=O)OCSC)C(=O)OCSC (centres undefined),3.7 mg/kg
2,CCOP(=S)(OCC)OC(C)=CC(=O)OC,0.14 mg/kg
3,CCN(C)N=O,90 mg/kg
4,Cc1ccc2c(c1)C1CN(CCCC(=O)c3ccc(F)cc3)CCC1N2 (centres undefined),812 mg/kg
5,CCC(C)(C)N/C(N)=N/C#N,300 mg/kg
6,CCC(=O)C1(c2cccc(O)c2)CCN(C)CC1,215 mg/kg
7,CCOCCOCCCO,7060 mg/kg
8,COC(=O)CNC[P@](=O)(O)Oc1ccccc1,4100 mg/kg
9,CCCCC(CC)COS(=O)(=O)O (centres undefined),4120 mg/kg
10,Nc1cccc(Cl)c1,256 mg/kg
11,CCCOP(=S)(OCCC)SCC(=O)N1CCCCC1C (centres undefined),324 mg/kg
12,COCCOC(=O)C=CC(=O)OCCOC,3340 mg/kg
13,CCCCON=O,83 mg/kg
14,O=C1c2ccccc2-c2ccc3c4c(ccc1c24)-c1c(Br)ccc(Br)c1C3=O,3570 mg/kg
15,CCCn1cnc2c1c(=O)n(CCCCC(C)=O)c(=O)n2C,940 mg/kg
16,O=C1c2ccccc2CCC1CNCCc1ccc(O)cc1 (centres undefined),650 mg/kg
17,CCOP(=S)(OCC)SCSCc1ccccc1,6 mg/kg
18,COC(=O)C=CC(=O)OC,2240 mg/kg
19,Cc1c(O)cc([N+](=O)[O-])cc1[N+](=O)[O-],25 mg/kg
20,CCCCC(CC)COP(=O)(O)O (centres undefined),3450 mg/kg
21,CN(C)CCN(Cc1ccccc1)c1ccccc1,300 mg/kg
22,CCOc1ccccc1OCCN[C@H](C)Cc1ccc(OC)c(S(N)(=O)=O)c1,650 mg/kg
23,CCCC(CCC)C(=O)O[C@H]1C[C@H]2CC[C@@H](C1)[N+]2(C)C,705 mg/kg
24,Cc1nn(C)c(=O)c2noc(C)c12,1000 mg/kg
25,CC(C)(C)N=NC(C)(C)O,329 mg/kg

row,SMILES,LD50
1,CCCCNC(N)=O,1260 mg/kg
2,CCOc1ccc(C2CC(N(CC)CC)c3ccccc32)cc1 (centres undefined),860 mg/kg
3,CCN(CC)c1nc(NC(C)C)nc(OC)n1,885 mg/kg
4,CCOC(=O)C1=C(COCCN)NC(C)=C(C(=O)OC)C1c1ccccc1Cl (centres undefined),393 mg/kg
5,O=C(Nc1ccccc1)c1ccccc1I,6400 mg/kg
6,CN(C)C(=O)CN1C(=O)C2C3C=C(C(O)(c4ccccc4)c4ccccn4)C(C3=C(c3ccccc3)c3ccccn3)C2C1=O (centres undefined),5.9 mg/kg
7,Cc1ccc2c(c1)[C@]13CCCC[C@@H]1[C@H](C2)N(C)CC3,690 mg/kg
8,COc1ccc2c(c1)N(C[C@H](C)CN(C)C)c1ccccc1S2,1100 mg/kg
9,CC1OC1(C)C (centres undefined),2640 mg/kg
10,COc1ccc(C(=O)CCC(=O)O)c2ccccc12,1800 mg/kg
11,Clc1ccccc1CN1CCc2sccc2C1,1780 mg/kg
12,CCC(CC)C(=O)NC(=Cc1ccc(OC)cc1)C(=O)O,4000 mg/kg
13,COCCOC(=O)CCCCCCCCC(=O)OCCOC,4970 mg/kg
14,CCOC(C1=NCC(C)(C)N1)c1ccccc1 (centres undefined),510 mg/kg
15,CCCCCCOC(=O)c1ccccc1C(=O)OCCCCCC,29600 mg/kg
16,CCn1c(=O)oc2ccc(Cl)cc21,1350 mg/kg
17,Nc1cc(Cl)cc(C(=O)O)c1Cl,3500 mg/kg
18,O=c1[nH]c2ccccc2c(=O)n1CCCN1CCN(c2cccc(Cl)c2)CC1,7650 mg/kg
19,CN1CCC(c2c[nH]c3ccccc23)C1 (centres undefined),413 mg/kg
20,CC(C(O)c1ccccc1)N(C)CCC#N (centres undefined),940 mg/kg
21,Nc1cc(Cl)ccc1Oc1ccc(Cl)cc1Cl,2290 mg/kg
22,N#CCC(N)=O,3200 mg/kg
23,O=[N+]([O-])c1ccc(O)c(CNCCCl)c1,25 mg/kg
24,CCc1ncc(C)nc1C,456 mg/kg
25,CCCCN(CCO)CCO,4250 mg/kg

row,SMILES,LD50
1,CCCCOP(=O)(O)OCCCC,3200 mg/kg and 3520 mg/kg
2,COc1c(C)c2c(c(O)c1C/C=C(\C)CCC(=O)O)C(=O)OC2,352 mg/kg
3,COC(=O)C(C)Oc1ccc(Oc2ncc(C(F)(F)F)cc2Cl)cc1 (centres undefined),393 mg/kg
4,Cc1cccc(Cl)c1NC(=O)/C=C1\SCC(=O)N1C,1350 mg/kg
5,C[C@H](CS)C(=O)N1CCC[C@H]1C(=O)O,4240 mg/kg
6,O=C(NCC1CCCCN1)c1cc(OCC(F)(F)F)ccc1OCC(F)(F)F (centres undefined),1350 mg/kg
7,COC1(C)CC(c2ccccc2)c2c(c3ccccc3oc2=O)O1 (centres undefined),4000 mg/kg
8,Oc1c(Cl)cc(Cl)c(Cl)c1Cc1c(O)c(Cl)cc(Cl)c1Cl,59.2 mg/kg
9,CCN(CC)C(=O)c1nnn(-c2ccccc2)c1C,500 mg/kg
10,CC(C)(C)NCC(O)c1ccc(O)c(CO)n1 (centres undefined),2800 mg/kg
11,CC(C(=O)O)c1ccc(Oc2nccs2)cc1 (centres undefined),135 mg/kg
12,O=P(O)(O)CN(CC(O)CN(CP(=O)(O)O)CP(=O)(O)O)CP(=O)(O)O,4300 mg/kg
13,CCC1(C)C(=O)N(CC2CO2)C(=O)N1CC1CO1 (centres undefined),250 mg/kg
14,COP(=S)(OC)SCSc1ccccc1,16 mg/kg
15,CCSN(C)C(=O)Oc1cccc2c1OC(C)(C)C2,25 mg/kg
16,Cc1ncc(CO)c(CO)c1O,4000 mg/kg
17,COc1cc2c(cc1OC)-c1c(OC)c(OC)cc3c1[C@H](C2)N(C)CC3,545 mg/kg
18,CC(=O)OC1CC2CCC3C(CCC4(C)C3CC(OC(C)=O)C4[N+]3(C)CCCCC3)C2(C)CC1[N+]1(C)CCCCC1 (centres undefined),202 mg/kg
19,Cc1ccc(N)cc1Br,180 mg/kg
20,CC1=CCC2C(C1)C2(C)C (centres undefined),4800 mg/kg
21,CCCOC(=O)c1cc(O)c(O)c(O)c1,2100 mg/kg
22,CCOP(=O)(OC=C(Cl)Cl)OCC,2.5 mg/kg
23,Nc1ccc(S(=O)(=O)O)cc1,5380 mg/kg
24,CC[C@H](C)CCCCC(=O)N[C@@H](CCN)C(=O)N[C@H](C(=O)N[C@@H](CCN)C(=O)N[C@H]1CCNC(=O)[C@@H]([C@H](C)O)NC(=O)[C@H](CCN)NC(=O)[C@H](CCN)NC(=O)[C@H](CC(C)C)NC(=O)[C@@H](CC(C)C)NC(=O)[C@H](CCN)NC1=O)[C@@H](C)O (X1-[Dab]T[Dab][Dab][Dab][dL]L[Dab][Dab][dT]; lactam 4-C),121 mg/kg
